{"source": "patent US11571429B2", "about": "“Method and compounds for treating peripheral neuropathy” (UPEXMED CO. LTD., priority 2017, dated 2023)", "origin": "cited, not measured here", "test_system": "diabetic neuropathy pain", "conditions": "taken orally"}
{"compound": "CN(C)CCC=C1c2ccccc2CCc2ccccc21", "note": "[Amitriptyline, amitriptyline]", "values": [{"measurement": "NNT; number of patients needed to treat for at least 50% pain relief", "value": 1.3}]}
